Series [1] in a line: Uncaging quantum yield determination relative to BODIPY reference. In kind it is physicochemical. As to conditions: calculated from the disappearance of the target conjugate; green light irradiation. How it is done: The relative photochemical quantum yields of the uncaging reactions together with the degradation quantum yields were determined from the results of the quantitative HPLC-UV experiments. In all cases, green light irradiation was used since all target conjugates absorbed in this range as well as the reference BODIPY. The photochemical quantum yields were determined using the following equation:
[formula] • where • Φu is the photochemical quantum yield of the sample • Φu,ref is the photochemical quantum yield of the reference • k is the obtained reaction rate constant of the photoreaction of the sample • kref is the obtained reaction rate constant of the photoreaction of the reference • c is the concentration of the sample • cref is the concentration of the reference • V is the volume of the sample • Vref is the volume of the reference • a is the absorption correction factor of the sample • aref is the absorption correction factor of the reference
The absorption correction factors (a) were determined from the molar absorption coefficients and the green LED emission data obtained by the fluorimeter. […] In other words, the transmittance at each wavelength together with the emission data of the light source can be used to calculate the percentage of absorbed photons according to the following equation:
[formula] • where • T(λ) is the transmittance at each wavelength (determined from the molar absorption coefficients) • F(λ) is the LED emission at each wavelength • λmin, λmax is the LED emission range.
The rate constants of the photoreactions were determined by considering the reactions monoexponential with an initial linear phase (up to 10-20% degradation). First, the concentration vs. HPLC-UV peak were determined for each cargo moieties. […] The rate constants were determined for both the reference (with known Φu) and the sample. For reference, a commonly known BODIPY derivative was used with a similar phenylacetic acid-derived cargo unit (substrate 7 from REF^40), Φu=0.15%:
The calculated photochemical quantum yields together with uncaging cross-sections or quantum efficiencies (product of the molar absorption coefficient at a given wavelength, shown in parentheses and the photochemical quantum yield) are shown in Table 2. In the table, Φu is the photochemical quantum yield of the release; Φdeg is the photochemical quantum yield of degradation; ε×Φu is the uncaging cross-section or quantum efficiency of the release at a given wavelength in parentheses.

A short description of series [2]: Spectroscopic properties of the target conjugates in PBS. In kind it is physicochemical. As for the experimental part: All starting materials were obtained from commercial suppliers and used without further purification. Analytical thin-layer chromatography (TLC) was performed on silica gel 60 F254 precoated aluminum TLC plates from Merck. Flash column chromatography was performed on Teledyne Isco CombiFlash® Rf+ automated flash chromatographer with silica gel (25-40 μm) from Zeochem. NMR spectra were recorded on a Varian Inova 500 MHz spectrometer. Chemical shifts (δ) are given in parts per million (ppm) using solvent signals or TMS as the reference. Coupling constants (J) are reported in Hertz (Hz). Analytical RP-HPLC-UV/Vis-MS measurements were employed using a Shimadzu LCMS-2020 instrument applying a Gemini C18 column (100×2.00 mm I.D.) in which the stationary phase is […] with a pore size of 110 Å. The chromatograms were detected by a UV-Vis diode array (190-800 nm) and an ESI-MS detector. The following linear gradient elution profile was applied, 0 min 0% B; 6.5 min 100% B; 7 min 0% B; 8 min. 0% B) with eluent A (2% HCOOH, 5% MeCN and 93% water) and B (2% HCOOH, 80% MeCN and 18% water) at a flow rate of 1.0 mL min-1 at 30° C. The samples were dissolved in MeCN—water mixtures. Spectroscopic measurements were performed on a Jasco FP 8300 spectrofluorometer. Quartz cuvettes with path length of 1 cm were used.
The spectroscopic properties of the target conjugates were determined in PBS. […] Compounds with Q=O have absorption bands in the green-yellow region while Q=CMe2 derivatives absorb in the red (up to 700 nm). All of the compounds have moderate to high absorption coefficients and significant fluorescence. The spectroscopic details can be found in Table 1. In the table, λmax means absorption maximum; λem means fluorescence emission maximum; s means molar absorption coefficient (at the absorption maximum).

Take `CCc1c2c(nc3ccc(OC(=O)N(C)CCN(C)C(=O)OC(C)c4c5ccc(=[N+]6CCCC6)cc-5oc5cc(N6CCCC6)ccc45)cc13)-c1cc3c(c(=O)n1C2)COC(=O)C3(O)CC.[I-]` (mixture of isomers) [X1′-SN38]: the “Φdeg, degradation quantum yield” value in series [1] is listed as 0.15%. Moreover, in series [2], the “λem (fluorescence emission maximum)” value was 594 nm and the “λmax (absorption maximum)” value is recorded as 575 nm. Moreover, in series [2] (at the absorption maximum), the “ε (molar absorption coefficient)” value is on record as 61 200 M^−1cm^−1.

The record behind these values is US20260055118A1, “VISIBLE LIGHT SENSITIVE PHOTOREMOVABLE PROTECTING GROUPS, PREPARATION PROCESS THEREOF, PHOTOACTIVATABLE CONJUGATES COMPRISING THEM AND USES THEREOF” (HUN-REN TERMÉSZETTUDOMÁNYI KUTATÓKÖZPONT, priority 2022, published 2026).
